Test results: US9815851B2, “Pyrrolo carboxamides as modulators of orphan nuclear receptor RAR-related orphan receptor-gamma (RORγ, NR1F3) activity and for the treatment of chronic inflammatory and autoimmune diseases” (PHENEX PHARMACEUTICALS AG, priority 2011, dated 2017)
Where two headings read alike, the source gives them in different places.

How the values were obtained:
[1] = biological target: T1, RORγ ligand binding domain (LBD) (Homo sapiens, UniProt P51449); test: TR-FRET Activity Assay (ligand sensing, RORγ-LBD / coactivator peptide interaction, LANCE); type: biochemical
T1 construct: made in house; host or cells: E. coli BL-21 (BL3), vector pDEST15
T1 sequence (P51449 269-508 limits assumed): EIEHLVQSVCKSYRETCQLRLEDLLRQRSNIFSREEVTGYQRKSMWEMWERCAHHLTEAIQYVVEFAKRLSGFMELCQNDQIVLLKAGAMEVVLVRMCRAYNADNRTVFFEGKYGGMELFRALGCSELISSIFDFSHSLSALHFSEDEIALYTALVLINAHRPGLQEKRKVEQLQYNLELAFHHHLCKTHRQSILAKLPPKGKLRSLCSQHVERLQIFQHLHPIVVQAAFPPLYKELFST

[2] = biological target: T2, RORγ (UniProt P51449); test: RORγ Gal4 Reporter Gene Assay in 293T cells (firefly and renilla luciferase); type: cell-based, human
T2 sequence (P51449 1-518): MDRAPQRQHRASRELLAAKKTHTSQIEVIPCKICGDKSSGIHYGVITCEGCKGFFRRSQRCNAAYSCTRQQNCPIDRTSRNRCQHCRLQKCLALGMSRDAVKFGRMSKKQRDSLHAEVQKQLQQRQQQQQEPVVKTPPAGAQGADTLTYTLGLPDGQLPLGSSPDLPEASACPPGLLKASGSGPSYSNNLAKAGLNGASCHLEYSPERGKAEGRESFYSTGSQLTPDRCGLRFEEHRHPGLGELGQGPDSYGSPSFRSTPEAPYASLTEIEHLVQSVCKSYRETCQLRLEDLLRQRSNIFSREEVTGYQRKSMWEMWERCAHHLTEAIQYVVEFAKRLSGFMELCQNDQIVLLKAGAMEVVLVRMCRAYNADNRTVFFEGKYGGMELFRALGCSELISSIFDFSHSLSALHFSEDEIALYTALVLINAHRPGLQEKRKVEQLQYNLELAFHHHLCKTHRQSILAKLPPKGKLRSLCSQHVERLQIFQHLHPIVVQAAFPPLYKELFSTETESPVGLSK

[3] = first value of the cell FRET/FF/REN, TR-FRET activity assay, read-out: pIC50 (FRET) (converted)
[4] = second value of the cell, Gal4 reporter gene assay in 293T cells, firefly luciferase
[5] = third value of the cell, Gal4 reporter gene assay in 293T cells, renilla normalised luciferase

Compound	IC50 [1, 3] [nM]	pIC50 (FF) [2, 4]	pIC50 (REN) [2, 5]	IC50 [1] [nM]	pIC50 (FF) [2]	pIC50 (REN) [2]
COC1(c2cc(-c3cc(C(=O)NC4CCOCC4)c(C)n3CC3CCCCC3)ccc2S(=O)(=O)NC(C)(C)C)CC1 [17/164]	1260	6.4	6.5	–	–	–
CNC(=O)c1ccc(-c2cc(C(=O)NC3CCOCC3)c(C)n2CC2CCCCC2)cc1C(C)(C)C [6/4]	10000	< 4.7	< 4.7	–	–	–
Cc1c(C(=O)NC2CCOCC2)cc(-c2cc3c(c(C(C)(C)C)c2)OCCC3=NO)n1CC1CCCCC1 [18/3]	1580	6.1	6.5	–	–	–
Cc1c(C(=O)N[C@H]2C[C@H](C(=O)O)C2)cc(-c2cc(C(=O)NC(C)(C)C(F)(F)F)cc(C3(C)CC3)c2)n1CC1CCCCC1 [17/360]	6310	7.3	7.4	–	–	–
Cc1c(C(=O)N[C@H]2C[C@H](C(=O)O)C2)cc(-c2cc(C(=O)NC(C)(C)C)cc(C(C)(C)C)c2)n1CC1CCCCC1 [17/330]	2510	7.3	7.4	–	–	–
Cc1c(C(=O)NCC(C)(C)C(=O)N2CCOCC2)cc(-c2cc(C(C)(C)C)c3c(c2)C2(CCO3)CC2)n1CC1CCCCC1 [Example 11, 5(8-(tert-Butyl)spiro[chroman-4,1′-cyclopropan]-6-yl)-1-(cyclohexylmethyl)-N-(2,2-dimethyl-3-morpholino-3-oxopropyl)-2-methyl-1H-pyrrole-3-carboxamide]	251	6.5	6.5	–	–	–
CCN(C(C)(C)C)S(=O)(=O)c1ccc(-c2cc(C(=O)NCC(C)(C)O)c(C)n2CC2CCCCC2)cc1C(C)(C)C [9/10]	–	–	–	316	6.5/7.7/7.2	6.5/7.7/7.2
CCN(C(C)(C)C)S(=O)(=O)c1ccc(-c2cc(C(=O)NC3CCOCC3)c(C)n2CC2CCCCC2)cc1C(F)F [17/125]	–	–	–	79.4	7.1/6.4/6/	7.1/6.4/6/
Cc1c(C(=O)NCC(C)(C)C(=O)O)cc(-c2ccc(S(=O)(=O)NC(C)(C)C)c(C(F)F)c2)n1CC1CCCCC1 [17/127]	316	7.1	7.2	–	–	–
CC(C)(C)NS(=O)(=O)c1ccc(-c2cc(C(=O)NCCC(C)(C)C(=O)O)c(C(N)=O)n2CC2CCCCC2)cc1C(F)(F)F [17/169]	794	6.7	6.7	–	–	–
CCC(C)(C)NC(=O)c1cc(-c2cc(C(=O)NC3COC3)c(C)n2CC2CCCCC2)cc(C(F)(F)F)c1 [15/3]	398	7.0	7.1	–	–	–
Cc1c(C(=O)NCC(C)(C)O)cc(-c2cc(C(C)(C)C)cc(S(=O)(=O)N(C)C(C)(C)C)c2)n1CC1CCCCC1 [9/3]	316	7.1	7.1	–	–	–
Cc1c(C(=O)NC2CC2)cc(-c2cc(C(C)(C)C)cc(C3(C)CC3)c2)n1CC1CCCCC1 [1/83]	316	6.9	7.0	–	–	–
CNC(=O)C(C)(C)CNC(=O)c1cc(-c2ccc(S(=O)(=O)NC(C)(C)C)c(C(F)(F)F)c2)n(CC2CCCCC2)c1C [17/204]	794	6.7	6.8	–	–	–
Cc1c(C(=O)NC2CCOCC2)cc(-c2ccc(S(=O)(=O)NC(C)(C)C)c(Br)c2)n1CC1CCCCC1 [17/157]	398	7.0	7.1	–	–	–
Cc1c(C(=O)NCC2CCS(=O)(=O)C2)cc(-c2cc(C(C)(C)C)c3c(c2)C2(CCO3)CC2)n1CC1CCCCC1 (stereo not drawn) [17/12]	200	7.2	7.4	–	–	–
Cc1c(C(=O)N2CC(C(C)(C)C(=O)O)C2)cc(-c2ccc(S(=O)(=O)NC(C)(C)C)c(C(F)(F)F)c2)n1CC1CCCCC1 [17/180]	631	7.1	7.2	–	–	–
Cc1c(C(=O)NCC(C)(C)C(=O)NCCO)cc(-c2cc(C(C)(C)C)c3c(c2)C2(CCO3)CC2)n1CC1CCCCC1 [11/5]	–	–	–	316	6.5/7.3/7.4	6.5/7.3/7.4
Cc1c(C(=O)N[C@H]2C[C@H](C(=O)O)C2)cc(-c2ccc(S(=O)(=O)NC3(C#N)CC3)c(C(F)(F)F)c2)n1CC1CCCCC1 [17/362]	1260	5.9	5.8	–	–	–
Cc1c(C(=O)NC2CCOCC2)cc(-c2ccc(S(=O)(=O)NC(C)(C)C)c3ccccc23)n1CC1CCCCC1 [17/236]	631	8.1	8.2	–	–	–
Cc1c(C(=O)NCCCCCS(C)(=O)=O)cc(-c2cc(C(C)(C)C)c3c(c2)C2(CCO3)CC2)n1CC1CCCCC1 [17/4]	–	–	–	631	6.2/6.7/6.7	6.2/6.7/6.7
CC(=O)NC(C)(C)CNC(=O)c1cc(-c2cc(C(C)(C)C)c3c(c2)C2(CCO3)CC2)n(CC2CCCCC2)c1C [17/28]	251	7.4	7.4	–	–	–
Cc1c(C(=O)NCCc2nn[nH]n2)cc(-c2ccc(S(=O)(=O)NC(C)(C)C)c(C(C)(C)O)c2)n1CC1CCCCC1 [17/336]	1000	< 4.7	< 4.7	–	–	–
